From patent US20130324615A1, “BIODEGREDATION SUPPRESSION SOLUTION FOR FORENSIC SAMPLES” (Indiana University Research and Technology Corporation, priority 2011, published 2013)

Columns and labels:
Format in all cases: cell-based
[1] = test system: bacteria grown from soil sample extract; test: Anti-microbial agent screening: soil-extract broth cultures treated with agent, then sub-cultured; conditions: confirmation on TSA plates
Experimental: In anti-microbial agent screening studies, a soil sample was extracted with a 0.9% saline solution of sodium chloride (NaCl) and water (H2O) and a sample loop was used to transfer approximately 10 μL of extract to a test tube containing sterile Tryptic Soy Broth (TSB). […] The broth samples were then treated with anti-microbial agents at a known concentration. The treated broth samples were then sub-cultured in another sterile TSB, minimal media (MM) or spread on sterile Tryptic Soy Agar (TSA) plates. MM is a nutrient deficient growth medium where citric acid is the only carbon source and which is selective against many species of bacteria. Bacterial growth was confirmed by visible inspection of the secondary TSB, MM or TSA plate. The broth/plate samples were then evaluated for how long they remained free of bacterial growth. […] The column labeled Bacterial Confirmatory Analysis provides the subculture media used to confirm bacterial growth.

bacteria of soil sample = test: Culturing study: soil sample directly treated with anti-microbial agent, extract inoculated into sterile TSB; conditions: concentration not given
Experimental: Additional culturing studies were carried out where a soil sample was directly treated with an anti-microbial agent. The exposure time of the soil sample to the anti-microbial was either 60 seconds or 24 hours. The extract was then sampled and used to inoculate a sterile TSB. The amount of time for bacterial growth to become visible was then noted.

[2] = test system: bacteria from saline extract of a soil sample; test: Growth curve by UV-Vis absorbance at 600 nm of TSB inoculated with saline soil extract; conditions: TSB treated with 1.8% triclosan in 0.1 M NaOH or with bleach; room temperature, up to 80 days
Experimental: FIG. 1 describes a growth curve constructed using UV-vis analysis of cultures taken from soil exposed to water, 0.1 M sodium hydroxide (NaOH), 1.81% triclosan and bleach.
A final culturing study was conducted where a set of culture tubes containing sterile TSB were inoculated with a saline extract of a soil sample. One set of culture tubes contained only sterile TSB, a second set contained sterile TSB treated with 0.1 M NaOH, a third set contained sterile TSB treated with 1.8% triclosan in 0.1 M NaOH and a fourth set contained sterile TSB treated with bleach. The culture tubes were allowed to stand at room temperature for periods of up to 80 days. Growth was then monitored three times daily for up to 4 days by a single beam diode array UV-Vis Spectrophotometer in the 400 nm to 800 nm range. The absorbance of the samples at 600 nm was monitored over the course of the study.

CC(C)(C)CC(C)(C)c1ccc(OCCOCC[N+](C)(C)Cc2ccccc2)cc1 [Benzethonium chloride in water, Benzethonium chloride]
Effective Period (time sub-culture remained free of bacterial growth) ([1]; agent at 1%): 0 days

[H]/N=C(\N/C(=N/[H])NCCCCCCNC(=N)NC(=N)Nc1ccc(Cl)cc1)Nc1ccc(Cl)cc1 [Chlorhexidine in water, Chlorhexidine]
Effective Period (time sub-culture remained free of bacterial growth) ([1]; agent at 14%): 0 days | Effective period (time for bacterial growth to become visible, cloudy) (bacteria of soil sample; soil exposure time 60 s): Cloudy after 8 days | Effective period (time for bacterial growth to become visible, cloudy) (bacteria of soil sample; soil exposure time 24 hrs): Still clean after 36 days

O=S(=O)([O-])[O-].[Cu+2] [Copper Sulfate in water, Copper Sulfate]
Effective Period (time sub-culture remained free of bacterial growth) ([1]; agent at 5%): 0 days

Oc1cc(Cl)ccc1Oc1ccc(Cl)cc1Cl [triclosan, 2,4,4′-trichloro-2′-hydroxydiphenyl ether]
Bacterial growth by sample absorbance at 600 nm (FIG. 1) [2]: prevent bacterial growth

Benzalkonium chloride [Benzalkonium chloride in water]
Effective Period (time sub-culture remained free of bacterial growth) ([1]; agent at 1%): 0 days
